Columns and labels:
Type in all cases: binding
[1] = target: T1, cytochrome c from equine heart (cyt c) (Equus caballus, UniProt P00004); test: Native MS glycan clustering to reference protein cyt c; conditions: on Cyt c
T1 construct: cytochrome c from equine heart (cyt c, CAS number 9007-43-6); purchased Sigma-Aldrich (Merck, Germany); host or cells: equine heart
Procedure: (§1) Prior to MS analysis, purified P dimers were buffer exchanged to 150 mM ammonium acetate (Sigma-Aldrich, reagent grade ≥98%) at pH 7 via centrifugal filter units at 12,000× g at 4 °C (Vivaspin 500, MWCO 10000, Sartorius). Glycans for native MS analysis were mixed with 1 µM (per monomer) purified GII.4 Saga P dimer and 3 µM of the reference proteins at indicated concentrations. Native mass spectra were measured at room temperature in positive ion mode on a high mass modified LCT Premier mass spectrometer (Waters/Micromass, UK and MS Vision, the Netherlands) with a nano-ESI source. In house-made gold-coated electrospray capillaries were used for direct-sample infusion without any accessory chromatographic separation. The voltages and pressures were optimized for non-covalent protein complexes. The gas pressure used in the source hexapole was set between 6.5 and 6.8 × 10^−2 mbar argon optimized for minimal complex dissociation and the backing pressure of the source roughing pump was set between 7.0 and 8.5 mbar. Spectra were recorded with applied voltages for the capillary and cone of 1.20 kV and 240 V, respectively. Note that charge state distributions for P dimers were sometimes slightly shifted as was the degree of glycan clustering per charge state. These changes were highly variable and not quantifiable.
(§2) For calibration of the raw data, a 25 mg/mL cesium iodide spectrum from the same day was used. MassLynx V4.1 (Waters, Manchester, UK) was used to assign peak series to protein species and to determine the mass after minimal smoothing. Furthermore, OriginPro 2016 SR2 (OriginLab, Northampton, MA, USA) was used for spectral deconvolution and curve fitting. Correction for nonspecific protein-ligand clustering was performed as described. Corrected peak areas were averaged and normalized to the free-protein signal. Data were based on at least three independent measurements. Python code Panda and Numpy package were used to calculate the specific binding of P dimers according to the glycan clustering ratio obtained from the selected reference protein candidates. Seaborn and matplotlib.pyplot package were imported into a python script to plot the results. The module of sklearn.linear model was applied for linear regression. The matplotlib and heatmap package were used to plot the heatmap.
(§3) Theoretically, the KD is calculated by measuring the concentration of the three components (Pfree, Lfree, PL) in solution. Usually, these values are only indirectly accessible because they require ligand titration up to binding saturation. However, native MS allows for the directly measurement of Pfree and PL, from which Lfree can be calculated using the input concentrations. In the present work, the non-covalent interaction was measured in the gas phase assuming identical ESI and detection efficiency for free and glycan-associated proteins, both for the analyte and the reference protein. […] For P dimers, the equations reflect glycan binding to the individual monomers assuming that binding sites on each monomer are equal and independent.
(§4) Using R described in Equation (3), the KD calculation can be re-written into Equation (4) with the known initial concentration of glycan ligand [L0] and protein [P0], adapted from Sun et al.:(3) R=PLequil∕Pequil=∑nA(PL^n+)∕n∕∑nA(P^n+)∕n (4) KD =L0−RP0/1+R/R
(§5) For the carbohydrate-binding experiments, it was essential to keep the initial protein concentrations and pH value constant during the analysis of the protein-carbohydrate solutions. While acidification occurs in any ESI droplet, the remaining solution in the capillary changes pH over time. Therefore, accumulated spectra were obtained within 10 min after the voltages were applied to minimize the influence of pH changes during the measurements. […]

[2] = target: T2, human apo-transferrin (apo-TFF) (Homo sapiens, UniProt P02787); test: Native MS glycan clustering to reference protein apo-TFF; conditions: on apo-TFF
T2 construct: purchased Sigma-Aldrich (Merck, Germany)
T2 sequence (P02787 20-698): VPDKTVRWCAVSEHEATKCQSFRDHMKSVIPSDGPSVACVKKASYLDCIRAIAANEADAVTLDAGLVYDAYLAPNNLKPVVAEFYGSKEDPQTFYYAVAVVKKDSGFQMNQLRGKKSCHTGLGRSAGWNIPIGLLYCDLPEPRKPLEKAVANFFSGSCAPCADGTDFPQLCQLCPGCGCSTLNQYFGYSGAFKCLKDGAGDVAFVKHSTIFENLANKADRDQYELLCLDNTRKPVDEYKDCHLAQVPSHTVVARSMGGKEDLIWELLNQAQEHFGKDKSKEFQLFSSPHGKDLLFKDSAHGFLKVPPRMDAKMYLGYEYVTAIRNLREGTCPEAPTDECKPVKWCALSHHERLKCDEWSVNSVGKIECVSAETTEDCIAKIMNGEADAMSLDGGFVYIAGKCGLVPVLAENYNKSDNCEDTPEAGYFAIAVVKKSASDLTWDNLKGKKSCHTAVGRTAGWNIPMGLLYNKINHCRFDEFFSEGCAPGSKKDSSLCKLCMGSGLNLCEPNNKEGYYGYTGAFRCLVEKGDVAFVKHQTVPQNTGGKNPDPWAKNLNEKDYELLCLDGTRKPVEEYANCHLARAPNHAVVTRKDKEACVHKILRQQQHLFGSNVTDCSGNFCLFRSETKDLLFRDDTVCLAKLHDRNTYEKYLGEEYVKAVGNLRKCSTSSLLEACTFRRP
Procedure: as §1, §2, §3, §4, §5

[3] = target: T3, carbonic anhydrase isozyme II from bovine erythrocytes (CA) (Bos taurus, UniProt P00921); test: Native MS glycan clustering to reference protein CA; conditions: on CA
T3 construct: carbonic anhydrase isozyme II from bovine erythrocytes (CA, CAS number 9001-03-0); purchased Sigma-Aldrich (Merck, Germany); host or cells: bovine erythrocytes
T3 sequence (P00921 whole entry): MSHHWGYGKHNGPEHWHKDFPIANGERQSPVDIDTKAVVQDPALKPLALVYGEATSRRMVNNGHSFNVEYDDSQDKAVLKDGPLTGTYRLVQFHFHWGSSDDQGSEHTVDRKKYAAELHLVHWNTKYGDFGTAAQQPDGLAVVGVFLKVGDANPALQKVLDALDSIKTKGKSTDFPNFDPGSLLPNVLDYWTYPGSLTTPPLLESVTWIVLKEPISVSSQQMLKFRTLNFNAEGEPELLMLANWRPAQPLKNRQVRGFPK
Procedure: as §1, §2, §3, §4, §5

[4] = target: T4, ubiquitin from bovine erythrocytes (Ubq) (Bos taurus, UniProt P0CG53); test: Native MS glycan clustering to reference protein Ubq; conditions: on Ubq
T4 construct: ubiquitin from bovine erythrocytes (Ubq, CAS number 75986-22-4); purchased Sigma-Aldrich (Merck, Germany); host or cells: bovine erythrocytes
Procedure: as §1, §2, §3, §4, §5

[5] = target: T5, alcohol dehydrogenase from Saccharomyces cerevisiae (ADH) (Saccharomyces cerevisiae, UniProt P00330); test: Native MS glycan clustering to reference protein ADH; conditions: on ADH
T5 construct: alcohol dehydrogenase from Saccharomyces cerevisiae (ADH, CAS number 9031-72-5); purchased Sigma-Aldrich (Merck, Germany); host or cells: Saccharomyces cerevisiae
T5 sequence (P00330 2-348 limits assumed): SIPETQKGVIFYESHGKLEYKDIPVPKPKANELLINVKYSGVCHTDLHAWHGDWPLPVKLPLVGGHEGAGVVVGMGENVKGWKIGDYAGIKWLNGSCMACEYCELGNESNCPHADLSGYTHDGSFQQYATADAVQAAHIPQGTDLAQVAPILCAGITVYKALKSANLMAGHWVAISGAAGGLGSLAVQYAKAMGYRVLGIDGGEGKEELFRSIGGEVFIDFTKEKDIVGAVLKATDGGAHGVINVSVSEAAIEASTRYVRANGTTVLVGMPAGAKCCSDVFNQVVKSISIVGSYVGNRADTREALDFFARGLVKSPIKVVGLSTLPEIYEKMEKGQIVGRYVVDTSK
Procedure: as §1, §2, §3, §4, §5

[6] = target: T6, myoglobin from equine heart (Myo) (Equus caballus, UniProt P68082); test: Native MS glycan clustering to reference protein Myo; conditions: on Myo
T6 construct: myoglobin from equine heart (Myo, CAS number 100684-32-0); purchased Sigma-Aldrich (Merck, Germany); host or cells: equine heart
T6 sequence (P68082 whole entry): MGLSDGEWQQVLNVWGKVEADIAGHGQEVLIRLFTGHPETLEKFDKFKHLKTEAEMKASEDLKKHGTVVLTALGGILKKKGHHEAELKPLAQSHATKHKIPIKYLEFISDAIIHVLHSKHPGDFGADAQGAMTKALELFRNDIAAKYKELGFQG
Procedure: as §1, §2, §3, §4, §5

T1 sequence (P00004 whole entry): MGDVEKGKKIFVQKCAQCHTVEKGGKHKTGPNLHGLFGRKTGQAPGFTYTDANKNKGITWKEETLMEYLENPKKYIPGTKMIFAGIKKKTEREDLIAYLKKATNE

Row | SMILES | Glycan-Clustering Ratio R ([1]; 100 µM glycan) | Glycan-Clustering Ratio R ([1]; 200 µM glycan) | Glycan-Clustering Ratio R ([1]; 300 µM glycan) | Glycan-Clustering Ratio R ([1]; 400 µM glycan) | Glycan-Clustering Ratio R ([1]; 500 µM glycan) | Glycan-Clustering Ratio R ([2]; 100 µM glycan) | Glycan-Clustering Ratio R ([2]; 200 µM glycan) | Glycan-Clustering Ratio R ([2]; 300 µM glycan) | Glycan-Clustering Ratio R ([2]; 400 µM glycan) | Glycan-Clustering Ratio R ([2]; 500 µM glycan) | Glycan-Clustering Ratio R ([3]; 100 µM glycan) | Glycan-Clustering Ratio R ([3]; 200 µM glycan) | Glycan-Clustering Ratio R ([3]; 300 µM glycan) | Glycan-Clustering Ratio R ([3]; 400 µM glycan) | Glycan-Clustering Ratio R ([3]; 500 µM glycan) | Glycan-Clustering Ratio R ([4]; 100 µM glycan) | Glycan-Clustering Ratio R ([4]; 200 µM glycan) | Glycan-Clustering Ratio R ([4]; 300 µM glycan) | Glycan-Clustering Ratio R ([4]; 400 µM glycan) | Glycan-Clustering Ratio R ([4]; 500 µM glycan) | further results
1 | CC(=O)N[C@H]1[C@H](O[C@H]2[C@@H](O)[C@@H](CO)O[C@H](O[C@@H]3[C@H](O)[C@@H](O)[C@H](O[C@H]4[C@H](O)[C@@H](O)C(O)O[C@@H]4CO)O[C@@H]3CO)[C@@H]2O)O[C@H](CO)[C@H](O)[C@@H]1O (stereo partly drawn) [Gb4, GalNAc β1-3 Galα1-4Galβ1-4Glc] | 0.10±0.01 | 0.15±0.00 | 0.19±0.03 | 0.29±0.04 | 0.45 ± 0.02 | 0.36±0.05 | 0.57±0.06 | 0.63±0.02 | 0.69±0.02 | 0.80 ± 0.05 | 0.21±0.01 | 0.32±0.07 | 0.50±0.00 | 0.60±0.05 | 0.75 ± 0.03 | 0.03±0.01 | 0.04±0.01 | 0.12±0.02 | 0.21±0.20 | 0.09 ± 0.03 | Glycan-Clustering Ratio R ([5]; 100 µM glycan): 0.34±0.04; Glycan-Clustering Ratio R ([5]; 200 µM glycan): 0.66±0.03; Glycan-Clustering Ratio R ([5]; 300 µM glycan): 0.81±0.11; Glycan-Clustering Ratio R ([5]; 400 µM glycan): 1.03±0.08; Glycan-Clustering Ratio R ([5]; 500 µM glycan): 1.26 ± 0.03; Glycan-Clustering Ratio R ([6]; 100 µM glycan): 0.14±0.02; Glycan-Clustering Ratio R ([6]; 200 µM glycan): 0.17±0.03; Glycan-Clustering Ratio R ([6]; 300 µM glycan): 0.20±0.03; Glycan-Clustering Ratio R ([6]; 400 µM glycan): 0.30±0.01; Glycan-Clustering Ratio R ([6]; 500 µM glycan): 0.37 ± 0.06
2 | CC(=O)N[C@H]1[C@@H](O[C@H]2[C@@H](O)[C@@H](CO)O[C@@H](O[C@H]3[C@H](O)[C@@H](CO)OC(O)[C@@H]3NC(C)=O)[C@@H]2O[C@@H]2O[C@@H](C)[C@@H](O)[C@@H](O)[C@@H]2O)O[C@H](CO)[C@H](O)[C@@H]1O (stereo partly drawn) [HBGA A, GalNAcα1-3(Fucα-2)Galβ1-3GlcNAc] | 0.18±0.03 | 0.16± 0.02 | 0.19± 0.03 | 0.27± 0.02 | 0.41 ± 0.09 | 0.39±0.02 | 0.57±0.05 | 0.65±0.02 | 0.71±0.03 | 0.79 ± 0.03 | 0.20±0.05 | 0.37±0.01 | 0.42±0.02 | 0.57±0.02 | 0.74 ± 0.07 | 0.06±0.03 | 0.04±0.01 | 0.13±0.01 | 0.18±0.01 | 0.10 ± 0.05 | Glycan-Clustering Ratio R ([5]; 100 µM glycan): 0.39± 0.02; Glycan-Clustering Ratio R ([5]; 200 µM glycan): 0.65± 0.02; Glycan-Clustering Ratio R ([5]; 300 µM glycan): 0.88± 0.10; Glycan-Clustering Ratio R ([5]; 400 µM glycan): 0.98± 0.05; Glycan-Clustering Ratio R ([5]; 500 µM glycan): 1.32 ± 0.10; Glycan-Clustering Ratio R ([6]; 100 µM glycan): 0.13±0.03; Glycan-Clustering Ratio R ([6]; 200 µM glycan): 0.16±0.03; Glycan-Clustering Ratio R ([6]; 300 µM glycan): 0.22±0.03; Glycan-Clustering Ratio R ([6]; 400 µM glycan): 0.29±0.04; Glycan-Clustering Ratio R ([6]; 500 µM glycan): 0.34 ± 0.03
3 | CC(=O)N[C@H]1C(O)O[C@H](CO)[C@@H](O)[C@@H]1O[C@@H]1O[C@H](CO)[C@H](O)[C@H](O[C@H]2O[C@H](CO)[C@H](O)[C@H](O)[C@H]2O)[C@H]1O[C@@H]1O[C@@H](C)[C@@H](O)[C@@H](O)[C@@H]1O (stereo partly drawn) [HBGA B, Galα1-3(Fucα1-2)Galβ1-3GlcNAc] | 0.14±0.01 | 0.15±0.01 | 0.19±0.03 | 0.29±0.02 | 0.35 ± 0.03 | 0.37±0.03 | 0.56±0.05 | 0.62±0.03 | 0.74±0.01 | 0.82 ± 0.03 | 0.22±0.03 | 0.32±0.05 | 0.40±0.04 | 0.60±0.05 | 0.75 ± 0.07 | 0.04±0.01 | 0.04±0.01 | 0.10±0.03 | 0.18±0.01 | 0.25 ± 0.00 | Glycan-Clustering Ratio R ([5]; 100 µM glycan): 0.42±0.03; Glycan-Clustering Ratio R ([5]; 200 µM glycan): 0.64±0.06; Glycan-Clustering Ratio R ([5]; 300 µM glycan): 0.97±0.08; Glycan-Clustering Ratio R ([5]; 400 µM glycan): 1.02±0.08; Glycan-Clustering Ratio R ([5]; 500 µM glycan): 1.45 ± 0.11; Glycan-Clustering Ratio R ([6]; 100 µM glycan): 0.14±0.03; Glycan-Clustering Ratio R ([6]; 200 µM glycan): 0.18±0.02; Glycan-Clustering Ratio R ([6]; 300 µM glycan): 0.19±0.06; Glycan-Clustering Ratio R ([6]; 400 µM glycan): 0.31±0.04; Glycan-Clustering Ratio R ([6]; 500 µM glycan): 0.36 ± 0.05

Reference: PMC8231113, “Protein Secondary Structure Affects Glycan Clustering in Native Mass Spectrometry” (Life, 2021)
